Measurements reported in patent US10889555B2, “Sulfonamide compound or salt thereof” (Taiho Pharmaceutical Co., Ltd., priority 2016, dated 2021).
Read-outs that look alike come from different tables or passages of the source.

Experiments:
[1] = system: HCC 1806 cells; assay: Cell proliferation inhibitory effect on human breast cancer cell line (crystal violet, 72 hours); format: cell-based; conditions: read-out: Cell growth suppression IC50
How it was run: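 Cells were seeded at 2,000/well in RPMI-1640 with 10% FBS and grown 1 day, then exposed to compound for 72 h at 37° C, 5% CO2. After glutaraldehyde fixation and 0.05% crystal violet staining, extracted dye was read at 540 nm. IC50 (μM) came from growth inhibition relative to untreated and cell-free wells.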

[2] = system: various cancer cell lines as described in Table 21; assay: Cell proliferation inhibitory effect on human cancer-derived cancer cell lines (method of Test Example 2); format: cell-based
Procedure: Human derived breast cancer cell line HCC 1806 cells were daily passaged at a cell density not exceeding 80% in ATCC recommended Roswell Park Memorial Institute medium (RPMI-1640) containing 10% fetal bovine serum (FBS). In order to start the test of cell proliferation inhibitory activity, HCC 1806 cells were suspended in the above medium, after seeing at 180 μL in each well of a 96-well flat bottom plate so that the number of cells per well was 2,000, the cells were cultured at 37° C. for 1 day in an incubator containing 5% carbon dioxide gas. On the next day, the test compound was dissolved in DMSO, and 20 μL of a drug additive solution diluted serially with distilled water to 10 times of the final concentration was added to each well of the culture plate of the cells, and the cells were cultured at 37° C. for 72 hours in an incubator containing 5% carbon dioxide gas. After culturing for 72 hours, 20 μL of glutaraldehyde was added to each well and allowed to stand for 30 minutes, then the plate was washed 10 times with water and was dried. 100 μL of a stain solution (0.05% crystal violet in a 20% methanol solution) was added to each well and allowed to stand for 30 minutes, then the plate was washed 10 times with water and was dried. 100 μL of an extract solution (0.1 N NaH2PO4: 100% ethanol=1:1) was added to each well and mixed, and the mixture was measured at a wavelength of 540 nm using a plate reader (MTP-450 manufactured by Corona Electric Co., Ltd.). The growth inhibition rate was calculated from the following formula, and the concentration (IC50 (μM)) of a test compound inhibiting 50% was determined. Growth inhibition rate (%)={(C−B)−(T−B)}/(C−B)×100
According to the method of Test Example 2, the cell proliferation inhibitory effect on various cancer cell lines as described in Table 21 was evaluated.

[3] = A673, Ewing's sarcoma, 2000 cell/well, read-out: cell proliferation inhibitory effect, A673
[4] = A2780, Ovarian Cancer, 2000 cell/well, read-out: cell proliferation inhibitory effect, A2780
[5] = ACHN, Kidney Cancer, 2000 cell/well, read-out: cell proliferation inhibitory effect, ACHN
[6] = CFPAC-1, Pancreatic Cancer, 2000 cell/well, read-out: cell proliferation inhibitory effect, CFPAC-1
[7] = DU-145, DU145, Prostate Cancer, 5000 cell/well, read-out: cell proliferation inhibitory effect, DU145
[8] = GB-1, Glioblastoma, 3000 cell/well, read-out: cell proliferation inhibitory effect, GB-1
[9] = HCT-116, HCT116, Colorectal Cancer, 1000 cell/well, read-out: cell proliferation inhibitory effect, HCT116
[10] = HLE, Liver Cancer, 3000 cell/well, read-out: cell proliferation inhibitory effect, HLE
[11] = MSTO-211H, Mesothelioma, 6000 cell/well, read-out: cell proliferation inhibitory effect, MSTO-211H
[12] = NCI-H460, Lung Cancer, 1000 cell/well, read-out: cell proliferation inhibitory effect, NCI-H460
[13] = NCI-H2170, Lung Cancer, 5000 cell/well, read-out: cell proliferation inhibitory effect, NCI-H2170
[14] = NCI-H2228, Lung Cancer, 5000 cell/well, read-out: cell proliferation inhibitory effect, NCI-H2228
[15] = NUGC-3, Stomach Cancer, 2000 cell/well, read-out: cell proliferation inhibitory effect, NUGC-3
[16] = RPMI7932, Melanoma, 4000 cell/well, read-out: cell proliferation inhibitory effect, RPMI7932

SMILES	IC50 [1]	IC50 [2, 3]	IC50 [2, 4]	IC50 [2, 5]	IC50 [2, 6]	IC50 [2, 7]	IC50 [2, 8]	IC50 [2, 9]	IC50 [2, 10]	IC50 [2, 11]	IC50 [2, 12]	IC50 [2, 13]	IC50 [2, 14]	IC50 [2, 15]	IC50 [2, 16]	IC50 ([1]; Homo sapiens, HCC1806, 72 h)
[2H]C([2H])([2H])C1(O)CCOc2c(S(=O)(=O)N[C@H](c3n[nH]c(=O)o3)[C@H](C)c3c(F)ccc(C)c3C)ccc(Cl)c21 (single isomer, unassigned) [Example 200A]	50 nM	180 nM	130 nM	130 nM	170 nM	170 nM	370 nM	220 nM	140 nM	170 nM	130 nM	490 nM	500 nM	270 nM	430 nM	
Cc1c(Cl)ccc(F)c1[C@@H](C)[C@H](NS(=O)(=O)c1ccc(Cl)c2c1OCCC2(C)O)c1n[nH]c(=O)o1 (single isomer, unassigned) [Example 209A]	60 nM	320 nM	300 nM	220 nM	330 nM	310 nM	640 nM	280 nM	260 nM	320 nM	250 nM	570 nM	730 nM	400 nM	720 nM	
Cc1c(Br)ccc(F)c1[C@@H](C)[C@H](NS(=O)(=O)c1ccc(Cl)c2c1OCCC2(C)O)c1n[nH]c(=O)o1 (single isomer, unassigned) [Example 222A]	60 nM	250 nM	190 nM	170 nM	230 nM	260 nM	460 nM	270 nM	200 nM	270 nM	180 nM	520 nM	480 nM	360 nM	510 nM	
[2H]C([2H])([2H])C1(O)CCOc2c(S(=O)(=O)N[C@H](c3n[nH]c(=O)o3)[C@H](C)c3c(F)ccc(Cl)c3C)ccc(Cl)c21 (single isomer, unassigned) [Example 228A]		400 nM	380 nM	320 nM	360 nM	340 nM	850 nM	380 nM	290 nM	370 nM	310 nM	880 nM	740 nM	510 nM	650 nM	140 nM
Cc1ccc(F)c([C@@H](C)[C@H](NS(=O)(=O)c2ccc(Cl)c3c2OCCC3O)c2n[nH]c(=O)o2)c1C (single isomer, unassigned) [Example 235A]	130 nM	610 nM	400 nM	380 nM	350 nM	530 nM	1120 nM	480 nM	420 nM	390 nM	350 nM	1100 nM	880 nM	710 nM	1230 nM	
Cc1ccc(F)c([C@@H](C)[C@H](NS(=O)(=O)c2ccc(Br)cc2C(N)=O)c2n[nH]c(=O)o2)c1C [Example 1, 5-bromo-2-(N-((1 S,2R)-2-(6-fluoro-2,3-dimethylphenyl)-1-(5-oxo-4,5-dihydro-1,3,4-oxadiazol-2-yl)propyl)sulfamoyl)benzamide]		920 nM	630 nM	680 nM	540 nM	730 nM	1560 nM	750 nM	560 nM	650 nM	570 nM	1410 nM	1350 nM	1120 nM	1740 nM	160 nM
Cc1ccc(F)c([C@@H](C)[C@H](NS(=O)(=O)c2ccc(Cl)cc2C(N)=O)c2n[nH]c(=O)o2)c1C [Example 5]		1090 nM	830 nM	750 nM	940 nM	1040 nM	1570 nM	910 nM	790 nM	700 nM	730 nM	1890 nM	1270 nM	1220 nM	2670 nM	200 nM
CCc1ccc(F)c([C@@H](C)[C@H](NS(=O)(=O)c2ccc(Cl)cc2C(N)=O)c2n[nH]c(=O)o2)c1C [Example 11, 5-chloro-2-(N-((1S,2R)-2-(3-ethyl-6-fluoro-2-methylphenyl)-1-(5-oxo-4,5-dihydro-1,3,4-oxadiazol-2-yl)propyl)sulfamoyl)benzamide]		2560 nM	2080 nM	1500 nM	1710 nM	1840 nM	5220 nM	2300 nM	1740 nM	1540 nM	1500 nM	3900 nM	3210 nM	3110 nM	4740 nM	640 nM
Cc1c(Cl)ccc(F)c1[C@@H](C)[C@H](NS(=O)(=O)c1ccc(Cl)cc1C(N)=O)c1n[nH]c(=O)o1 [Example 14, 5-chloro-2-(N-((1S,2R)-2-(3 chloro-6-fluoro-2-methylphenyl)-1-(5oxo-4,5-dihydro-1,3,4-oxadiazol-2-yl)propyl)sulfamoyl)benzamide]		1850 nM	1710 nM	980 nM	1420 nM	2220 nM	4600 nM	2200 nM	1300 nM	1580 nM	1350 nM	4180 nM	3530 nM	2830 nM	3210 nM	560 nM
CCn1cc(-c2ccc(F)c([C@@H](C)[C@H](NS(=O)(=O)c3ccc(Cl)cc3OC)c3n[nH]c(=O)o3)c2C)cn1 [Example 310, 4-chloro-N-((1S,2R)-2-(3-(1-ethyl-1H-pyrazol-4-yl)-6-fluoro-2-methylphenyl)-1-(5-oxo-4,5-dihydro-1,3,4-oxadiazol-2-yl)propyl)-2-methoxybenzenesulfonamide]																350 nM
COc1cc(Cl)ccc1S(=O)(=O)N[C@H](c1n[nH]c(=O)o1)[C@H](C)c1c(F)ccc(-c2cnn(C3CC3)c2)c1C [Example 311, 4-chloro-N-((1S,2R)-2-(3-(1-cyclopropyl-1H-pyrazol-4-yl)-6-fluoro-2-methylphenyl)-1-(5-oxo-4,5-dihydro-1,3,4-oxadiazol-2-yl)propyl)-2-methoxybenzenesulfonamide]																520 nM
COc1cc(Cl)ccc1S(=O)(=O)N[C@H](c1n[nH]c(=O)o1)[C@H](C)c1c(F)ccc(-c2cnn(C3CCC3)c2)c1C [Example 312, 4-chloro-N-((1S,2R)-2-(3-(1-cyclobutyl-1H-pyrazol-4-yl)-6-fluoro-2-methylphenyl)-1-(5-oxo-4,5-dihydro-1,3,4-oxadiazol-2-yl)propyl)-2-methoxybenzenesulfonamide]																870 nM
COc1cc(Cl)ccc1S(=O)(=O)N[C@H](c1n[nH]c(=O)o1)[C@H](C)c1c(F)ccc(-c2ccc(N3CCOCC3)nc2)c1C [Example 315, 4-chloro-N-((1S,2R)-2-(6-fluoro-2-methyl-3-(6-morpholinopyridin-3-yl)phenyl)-1-(5-oxo-4,5-dihydro-1,3,4-oxadiazol-2-yl)propyl)-2-methoxybenzenesulfonamide]																930 nM
Cc1c(Br)ccc(F)c1[C@@H](C)[C@H](NS(=O)(=O)c1ccc(Cl)c2c1OCCC2(C)N)c1n[nH]c(=O)o1 (stereo partly drawn) [Example 329, 4-amino-N-((1S,2R)-2-(3-bromo-6-fluoro-2-methylphenyl)-1-(5-oxo-4,5-dihydro-1,3,4-oxadiazol-2-yl)propyl)-5-chloro-4-methyl-chroman-8-sulfonamide]																240 nM
Cc1ccc(F)c([C@@H](C)[C@@H](c2n[nH]c(=O)o2)N(C)S(=O)(=O)c2ccc(Cl)cc2C(N)=O)c1C [Example 337, 5-chloro-2-(N-((1S,2R)-2-(6-fluoro-2,3-dimethylphenyl)-1-(5-oxo-4,5-dihydro-1,3,4 oxadiazol-2-yl)propyl)-N-methylsulfamoyl)benzamide]																300 nM
